The source of these data is patent US6989378B2, “Testosterone derivative” (Akzo Nobel N.V., priority 1998, dated 2006).

≈ marks a conversion by molar mass, not a printed value. Like-named read-outs stand apart in the source and are kept apart here. A value given as a limit tells only on which side of the number the result lay.

Series [1] is described as follows: Solubility in oil solvent (amount of compound dissolved per ml of solvent). As to conditions: for solubility at 15 min: oil or lipid, thermodynamic from solid, dissolved by heating in waterbath of 50° C. and Vortex shaking 15 minutes. It is filed as physicochemical. How it is done:
About 20–30 mgs of compound were powdered and then dissolved in as little solvent as necessary to dissolve all the visible particles. Dissolution was accomplished by heating in a waterbath of 50° C. and shaking on a Vortex™ shaker for 15 minutes. The solubility was calculated by determining the amount of compound (in mg) dissolved per ml of solvent.

In another series the test system is monkeys. To be noted: anabolic and antigonadotropic effects; cited from earlier work.
A further series has as its system rats. As to conditions: anabolic and antigonadotropic effects; cited from earlier work.
Where [2] appears, read: arachis oil, read-out: solubility arachis oil.
Setting [3] is: oleic acid, read-out: solubility oleic acid.

As to `CCCCCCCCCCC(=O)O[C@H]1CC[C@H]2[C@H]3[C@H](CC[C@]12C)[C@H]1CCC(=O)C=C1C[C@H]3C` [MENT undecanoate, (7α,17β)-7-methyl-17-[(1-oxoundecyl)oxy]estr-4-en-3-one], the “solubility in arachis oil compared with the other androgens” value in series [1] (arachis oil, comparison in words) was “much better than that of any of the other androgens”. Further, the solubility at 15 min is more than 200 mg/mL in series [1] (setting [2]) and not below 500 mg/mL in series [1] (setting [3]). Further, the “solubility in oleic acid compared with the known androgens” value in series [1] (oleic acid, comparison in words) is reported as “better than expected”.
Consider `C[C@@H]1CC2=CC(=O)CC[C@@H]2[C@H]2CC[C@]3(C)[C@@H](O)CC[C@H]3[C@@H]21` [MENT, (7α,17β)-17-hydroxy-7-methylestr-4-en-3-one], for which the “androgenic potency relative to testosterone” value with monkeys and in the series on rats was “ten times more potent than testosterone” in each case. Further, the solubility at 15 min in series [1] (setting [2]) was not above 0.1 mg/mL; in series [1] (setting [3]), approximately 15 mg/mL (≈ 52 mM).
Take `CCCCCCCCCCC(=O)O[C@H]1CC[C@H]2[C@@H]3CCC4=CC(=O)CC[C@]4(C)[C@H]3CC[C@]12C` [testosterone undecanoate, (17β)-17-[(1-Oxoundecyl)oxy]androst-4-en-3-one]: the solubility at 15 min in series [1] (setting [2]) was approximately 45 mg/mL (≈ 98.5 mM); in series [1] (setting [3]) it was 200 to 250 mg/mL (≈ 438 to 547 mM).
For the compound `C[C@]12CC[C@H]3[C@@H](CCC4=CC(=O)CC[C@@]43C)[C@@H]1CC[C@@H]2O` [testosterone], the solubility at 15 min was less than 0.1 mg/mL in series [1] (setting [2]) and approximately 25 mg/mL (≈ 86.7 mM) in series [1] (setting [3]).

By solubility is commonly meant how much of the substance goes into solution per volume.
